Assays:
Format in all cases: cell-based
[1] = tested on: E. coli IMP-14 Mutant 2 (H174N); test: MIC broth microdilution, recombinant E. coli; conditions: Escherichia coli; IMP-14 H174N; TAN/XER fixed at 4 µg/mL, XER 8 µg/mL in MEM-XER; read-out: Minimal inhibitory concentration
From the text: (§1) Genes encoding different acquired IMP-like enzymes suspected to be resistant to XER (blaIMP-6, blaIMP-7, blaIMP-10, blaIMP-14, blaIMP-26, blaIMP-34, and blaIMP-59) were amplified by PCR, and corresponding amplicons were cloned into plasmid pUCP24 and expressed in E. coli TOP10. The following recombinant E. coli strains producing IMP-1, IMP-4, IMP-19, and NDM-1 were used from a previous study ([16]). […] For that purpose, a list of primers was designed and provided as Table S1. […] The nomenclature used in this study was according to the BBL sequence numbering ([52]).
(§2) To assess the inhibitory potency of XER, susceptibility testing was performed by broth microdilution method, determining the minimal inhibitory concentrations (MICs) of different antibiotics or antibiotic plus β-lactamase inhibitor combinations, including cefepime (FEP), imipenem (IPM), meropenem (MEM), and their combinations with XER (FEP-XER, IPM-XER, and MEM-XER). All data obtained with XER-based combinations were compared with data with TAN-based combinations, FEP-TAN, IPM-TAN, and MEM-TAN ([16]). FEP was purchased from Sigma-Aldrich (Saint-Louis, USA), whereas MEM was from HuiChem (Shanghai, China). […] MICs were determined in triplicate in cation-adjusted Mueller-Hinton (MH) broth (Bio-Rad, Marnes-la-Coquette, France) according to the CLSI guidelines ([53]). The results were interpreted according to the decrease in MIC value for the same antibiotic or combination of the corresponding recombinant strain producing the MBL enzyme. […] In a recent phase I clinical evaluation, XER was combined with cefiderocol. However, as this latter β-lactam substrate is known to be poorly hydrolyzed by IMP enzymes, it was not considered for the evaluation of XER inhibitory activity in this study. Instead, carbapenems were used as a substrate to evaluate the β-lactamase IMP activity in the presence or absence of XER and TAN, as it was deemed more specific for the IMP carbapenemase activity.

E. coli IMP-1 = test: MIC broth microdilution, recombinant E. coli; conditions: Escherichia coli, IMP1; IMP-1-like; TAN/XER fixed at 4 µg/mL, XER 8 µg/mL in MEM-XER; read-out: Minimal inhibitory concentration
From the text: as §1, §2

E. coli NDM-1* (S262G) = test: MIC broth microdilution, recombinant E. coli; conditions: Escherichia coli, TAN/XER fixed at 4 µg/mL, XER 8 µg/mL in MEM-XER, read-out: Minimal inhibitory concentration
From the text: as §1, §2

E. coli IMP-26 = test: MIC broth microdilution, recombinant E. coli; conditions: Escherichia coli, IMP26; IMP-4 like, V67F; TAN/XER fixed at 4 µg/mL, XER 8 µg/mL in MEM-XER; read-out: Minimal inhibitory concentration
From the text: as §1, §2

[2] = tested on: E. coli IMP-14 Mutant 5 (Y233N); test: MIC broth microdilution, recombinant E. coli; conditions: Escherichia coli; IMP-14 Y233N; TAN/XER fixed at 4 µg/mL, XER 8 µg/mL in MEM-XER; read-out: Minimal inhibitory concentration
From the text: as §1, §2

[3] = tested on: E. coli IMP-14 Mutant 1 (S65G); test: MIC broth microdilution, recombinant E. coli; conditions: Escherichia coli; IMP-14 S65G; TAN/XER fixed at 4 µg/mL, XER 8 µg/mL in MEM-XER; read-out: Minimal inhibitory concentration
From the text: as §1, §2

[4] = tested on: E. coli IMP-14 Mutant 4 (D227Y); test: MIC broth microdilution, recombinant E. coli; conditions: Escherichia coli; IMP-14 D227Y; TAN/XER fixed at 4 µg/mL, XER 8 µg/mL in MEM-XER; read-out: Minimal inhibitory concentration
From the text: as §1, §2

E. coli NDM-1 = test: MIC broth microdilution, recombinant E. coli; conditions: Escherichia coli, NDM1; NDM-1-like; TAN/XER fixed at 4 µg/mL, XER 8 µg/mL in MEM-XER; read-out: Minimal inhibitory concentration
From the text: as §1, §2

E. coli IMP-4 = test: MIC broth microdilution, recombinant E. coli; conditions: Escherichia coli, IMP4; IMP-4 like; TAN/XER fixed at 4 µg/mL, XER 8 µg/mL in MEM-XER; read-out: Minimal inhibitory concentration
From the text: as §1, §2

E. coli IMP-6 = test: MIC broth microdilution, recombinant E. coli; conditions: Escherichia coli, IMP6; IMP-1-like, S262G; TAN/XER fixed at 4 µg/mL, XER 8 µg/mL in MEM-XER; read-out: Minimal inhibitory concentration
From the text: as §1, §2

E. coli IMP-10 = test: MIC broth microdilution, recombinant E. coli; conditions: Escherichia coli, IMP10; IMP-1-like, V67F; TAN/XER fixed at 4 µg/mL, XER 8 µg/mL in MEM-XER; read-out: Minimal inhibitory concentration
From the text: as §1, §2

[5] = tested on: E. coli IMP-14 Mutant 3 (N178S); test: MIC broth microdilution, recombinant E. coli; conditions: Escherichia coli; IMP-14 N178S; TAN/XER fixed at 4 µg/mL, XER 8 µg/mL in MEM-XER; read-out: Minimal inhibitory concentration
From the text: as §1, §2

E. coli IMP-59 = test: MIC broth microdilution, recombinant E. coli; conditions: Escherichia coli, IMP59; IMP-4 like, N233Y; TAN/XER fixed at 4 µg/mL, XER 8 µg/mL in MEM-XER; read-out: Minimal inhibitory concentration
From the text: as §1, §2

E. coli IMP-14 = test: MIC broth microdilution, recombinant E. coli; conditions: Escherichia coli, IMP14; IMP-2-like, multiple substitutions; TAN/XER fixed at 4 µg/mL, XER 8 µg/mL in MEM-XER; read-out: Minimal inhibitory concentration
From the text: as §1, §2

[6] = tested on: Serratia marcescens SMART 2558; test: microbe, parasite or virus in culture; conditions: SMART2558, IMP-8, CTX-M-3, TAN/XER fixed at 4 µg/mL, XER 8 µg/mL in MEM-XER, read-out: Minimal inhibitory concentration
Method: Most isolates and their respective β-lactamase content were characterized by whole-genome sequencing.
as §2

E. coli IMP-2 = test: MIC broth microdilution, recombinant E. coli; conditions: Escherichia coli, IMP2; IMP-2-like; TAN/XER fixed at 4 µg/mL, XER 8 µg/mL in MEM-XER; read-out: Minimal inhibitory concentration

Work on `CO/N=C(\C(=O)N[C@@H]1C(=O)N2C(C(=O)[O-])=C(C[N+]3(C)CCCC3)CS[C@H]12)c1csc(N)n1` [FEP, cefepime] yielded an MIC [1] of 64 µg/mL, an MIC (E. coli IMP-1) of 32 µg/mL and an MIC (E. coli NDM-1* (S262G)) of 1 µg/mL. For the same molecule, the MIC (E. coli IMP-26) was 32 µg/mL, the MIC [2] was 16 µg/mL and the MIC [3] was 128 µg/mL. The MIC [4] was 128 µg/mL, the MIC (E. coli NDM-1) was 4 µg/mL and the MIC (E. coli IMP-4) was 8 µg/mL. It also gave an MIC (E. coli IMP-6) of 4 µg/mL, an MIC (E. coli IMP-10) of 64 µg/mL and an MIC [5] of 128 µg/mL. For the same molecule, the MIC (E. coli IMP-59) was 8 µg/mL, the MIC (E. coli IMP-14) was 64 µg/mL and the MIC [6] was 32 µg/mL. It also gave an MIC (E. coli IMP-2) of 8 µg/mL.
In the case of `C[C@@H](O)[C@H]1C(=O)N2C(C(=O)O)=C(SCCN=CN)C[C@H]12` [IPM, imipenem], the MIC [1] is reported as 2 µg/mL, the MIC (E. coli IMP-1) is reported as 4 µg/mL and the MIC (E. coli NDM-1* (S262G)) is reported as 0.25 µg/mL. It also gave an MIC (E. coli IMP-26) of 8 µg/mL, an MIC [2] of 32 µg/mL and an MIC [3] of 8 µg/mL. For the same molecule, the MIC [4] was 8 µg/mL, the MIC (E. coli NDM-1) was 2 µg/mL and the MIC (E. coli IMP-4) was 1 µg/mL. For the same molecule, the MIC (E. coli IMP-6) was at most 0.25 µg/mL, the MIC (E. coli IMP-10) was 16 µg/mL and the MIC [5] was 2 µg/mL. The MIC (E. coli IMP-59) was 0.5 µg/mL, the MIC (E. coli IMP-14) was 1 µg/mL and the MIC [6] was at most 0.25 µg/mL. For the same molecule, the MIC (E. coli IMP-2) was 0.5 µg/mL.
`C[C@@H](O)[C@H]1C(=O)N2C(C(=O)O)=C(S[C@@H]3CN[C@H](C(=O)N(C)C)C3)[C@H](C)[C@H]12` [MEM, meropenem] showed an MIC [1] of 4 µg/mL, an MIC (E. coli IMP-1) of 8 µg/mL and an MIC (E. coli NDM-1* (S262G)) of 32 µg/mL. For the same molecule, the MIC (E. coli IMP-26) was 128 µg/mL, the MIC [2] was 1 µg/mL and the MIC [3] was 8 µg/mL. The MIC [4] was 8 µg/mL, the MIC (E. coli NDM-1) was 2 µg/mL and the MIC (E. coli IMP-4) was 8 µg/mL. For the same molecule, the MIC (E. coli IMP-6) was 64 µg/mL, the MIC (E. coli IMP-10) was 64 µg/mL and the MIC [5] was 8 µg/mL. It also gave an MIC (E. coli IMP-59) of 8 µg/mL, an MIC (E. coli IMP-14) of 4 µg/mL and an MIC [6] of 0.25 µg/mL. For the same molecule, the MIC (E. coli IMP-2) was 1 µg/mL.

From article PMC12217461 (Antimicrobial Agents and Chemotherapy, 2025)
